We go through four compounds from ChEMBL document CHEMBL1124633, “Antimalarials. 16. Synthesis of 2-substituted analogues of 8-[(4-amino-1-methylbutyl)amino]-6-methoxy-4-methyl-5-[3- (trifluoromethyl)phenoxy]quinoline as candidate antimalarials” (J Med Chem, 1989).

The nature of series [1]: Acute toxicity administered orally was determined in 74 male rats. Conditions: rat, in vivo, po.
The nature of series [2]: Acute toxicity administered orally was determined in 85 female rats. The following applies: rat, in vivo, po.
The nature of series [3]: Acute toxicity administered intra peritoneally was determined in 74 male rats. Conditions: rat, in vivo, ip.
Series [4] in a line: Acute toxicity administered intra peritoneally was determined in 85 female rats. The following applies: rat, in vivo, ip.
A short description of series [5]: Molar primaquine index is ratio of ED50 of Compound by ED50 of primaquine in rhesus monkey. The series is classed as functional.
The nature of series [6]: Molar primaquine index is ratio of ED50 of Primaquine by ED50 of primaquine in rhesus monkey. The series is classed as functional.
Series [7] is described as follows: Acute toxicity administered intraperitoneally was determined in male rats. The series is classed as organism-based. The following applies: rat, in vivo, ip.
Series [8] can be described thus: Acute toxicity administered orally was determined in female rats. The format is organism-based. The following applies: rat, in vivo, po.
Series [9] can be described thus: Acute toxicity administered orally was determined in male rats. The format is organism-based. Conditions: rat, in vivo, po.
Series [10] in a line: Acute toxicity administered intraperitoneally was determined in female rats. The series is classed as organism-based. Conditions: rat, in vivo, ip.

What is called LD50 is the dose expected to kill half of the subjects tested. Consider `COc1cc(NC(C)CCCN)c2nccc(C)c2c1Oc1cccc(C(F)(F)F)c1` (configuration not stated), for which the LD50 in [1] was determined as 256 mg/kg; in series [2], 401 mg/kg; in [3], 86 mg/kg; in series [4], 54 mg/kg. Moreover, in series [5], the Ratio came to 6.8.
For the compound `COc1cc(NC(C)CCCN)c2nc(OC)cc(C)c2c1` (configuration not stated), in series [5], the Ratio was 6.8.
Take `COc1cc(NC(C)CCCN)c2ncccc2c1` (configuration not stated) [PRIMAQUINE]: the Ratio in series [6] was 1.
Take `COc1cc(C)c2c(Oc3cccc(C(F)(F)F)c3)c(OC)cc(NC(C)CCCN)c2n1` (configuration not stated) [TAFENOQUINE]: the LD50 was 102 mg/kg in series [7], 416 mg/kg in series [8], 429 mg/kg in [9] and 71 mg/kg in series [10]. Besides, the Ratio in series [5] came out at 12.8.
